Reference: patent US11198900B2, “Nucleic acid-based linkers for detecting and measuring interactions” (Children's Medical Center Corporation, priority 2014, dated 2021)

Tests used:
streptavidin [1] = target: T1, streptavidin (Streptomyces avidinii, UniProt P22629); test: DNA nanoswitch gel electrophoresis, desthiobiotin-streptavidin off-rate; format: binding
T1 construct: purchased Rockland
Method: Desthiobiotin experiments were conducted in a similar manner as the biotin experiments with slight modifications. […] The off-rate of the desthiobiotin interaction is much faster than the typical 100 minute gel run time. Noting that once a loop opens in the gel, the reptation of the DNA prevents the loop from closing again, we ran samples for different amounts of time in the gel at 15 V/cm and 4° C., and quantified the fraction looped as a function of running time. In addition to allowing the determination of the desthiobiotin-streptavidin off rate, this gel also allowed us to determine the minimum amount of time required to achieve separation of the looped and unlooped bands in the gel. This enabled the use of the standard quenching technique for measuring desthiobiotin off-rates as described in the previous section; these gels were run at 15 V/cm for 10 minutes in pre-chilled electrophoresis buffer.

Neutravidin = Neutravidin (Gallus gallus, UniProt P02701); test: DNA nanoswitch gel electrophoresis, biotin with avidin and Neutravidin; format: binding; conditions: relative to avidin
Chain of Neutravidin (P02701 25-152): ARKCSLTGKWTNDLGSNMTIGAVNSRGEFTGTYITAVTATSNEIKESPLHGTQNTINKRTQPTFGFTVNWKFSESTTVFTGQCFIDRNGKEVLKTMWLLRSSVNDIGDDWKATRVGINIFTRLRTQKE
Method: Preparations with avidin and neutravidin were prepared in the same way, but protein concentrations were sometimes altered to enable on-rate measurements over a similar time scale as the streptavidin experiments.

streptavidin [2] = target: T1, streptavidin; test: DNA nanoswitch gel electrophoresis, biotin-streptavidin on-rate and off-rate (Example 3); format: binding
Method: This construct used biotinylated versions of two oligonucleotides (var 4 and var 8), which were used in 4× molar excess to the scaffold, while all other oligonucleotides were used in a 10× molar excess. […] The final DNA construct was then diluted 100× from its original concentration of ˜16 nM (to 160 pM), and mixed in equal volumes with streptavidin (Rockland) at 6 nM nominal concentration to form the loops, yielding final nominal concentrations of ˜80 pM and 3 nM, respectively.
The 25° C. experiment was performed at room temperature, the 4° C. experiment was performed in a cold room, and the 37° C. and 50° C. experiments were performed using a thermal cycler. […] Actual concentrations used to determine the on-rates were measured using spectrophotometry and a HABA assay to determine streptavidin activity.
Off-rate measurements were performed by forming looped construct as described above, and letting the solution sit for at least 24 hours to allow the system to reach equilibrium. […] The 4° C. condition was done in a refrigerator, the 25° C. sample was done in a water bath, and the 37° C. and 50° C. temperatures were done in a thermal cycler. To run all the samples on a single gel, the quenching times were determined relative to the predetermined gel running time.
The amount of material in each gel band was quantified by analyzing the scanned gel images with the gel analysis tool in the freely available ImageJ software package. Using rectangular regions of interest that just capture the width of the gel bands, this toolbox produces intensity profiles whose area can be measured to quantify the total brightness in each band. We applied the same rectangular window size to each lane within a single gel. In many gels the highest molecular weight band of the added ladder was used as a normalizing reference lane. This relaxed the constraints of pipetting perfectly across all lanes. • 2) All multistate (with 5 bands) gels were analyzed as follows
Error bars were produced based on this analysis, and all fitting procedures used an error weighted least squares fit.
The time evolution of DNA nanoswitch states are modeled using multistep reaction kinetics. On rates are modeled as a two-step process: Unbound Linear→Singly Bound Linear→Looped
Step 1 represents the binding of a free receptor in solution to a ligand on the scaffold (yielding the solution on-rate), Step 2 represents the subsequent binding of this receptor to another ligand on the same scaffold to form a loop (yielding the loop-closure rate).
We additionally used Eyring analysis to fit the temperature dependence of the kinetic rates: […]

streptavidin [3] = target: T1, streptavidin; test: DNA nanoswitch gel electrophoresis, biotin-streptavidin kinetics (Example 2, FIG. 7 and 8); format: binding; conditions: for dissociation time: 150 mM physiological salt
Excerpt: FIG. 7. […] (A) The DNA nanoswitch has two distinct states, depending on the binding of a receptor-ligand pair, that can be distinguished by gel electrophoresis, (B) In the presence of excess ligand, a nanoswitch in the bound state will become trapped in the unbound state upon dissociation. […] The amount of looped construct is quantified from the gel to determine the kinetics of dissociation.
FIG. 7D, for example, illustrates the formation of looped constructs having two biotins in the presence of streptavidin (t=0).
Linkers were designed according to protocols for long (2580 bp) and short (600 bp) loops as described herein. […] All other oligos were the same as those used previously. Briefly, looped constructs were made by mixing a long single-stranded DNA (M13mp18, in this case) with over 121 oligos that are complementary along its length. […] The constructs come together by self-assembly with a temperature ramp heating and cooling them.
Recognizing that the nanoswitch conformation informs the receptor-ligand binding state (bound or unbound), and that the conformation can be observed on a gel, an assay to measure bulk interaction kinetics was developed. The assay, conceptually shown in FIG. 7, proceeds as follows: 1) form a looped nucleic acid (DNA) construct that relies on a receptor and a ligand being bound to each other, 2) quench the interaction between the receptor and the ligand, for example, with excess receptor or ligand to prevent rebinding following dissociation, 3) monitor the relative amount of looped construct over time to measure kinetics.
Linear double-stranded DNA constructs 7249 base pairs (bp) in length were self-assembled by combining the single-stranded M13 bacteriophage genome with 121 complementary oligos. (See also Halvorsen K et al., 2011.). Two of the oligos were labeled with single biotins and placed 2580 bp from each other, such that interaction with streptavidin induced the formation of a 2580 bp loop in the structure. […] The entire array of 16 conditions with five time points each plus controls was then run on a single 96 lane agarose gel (FIG. 8).
The gel analysis tool in ImageJ was used to measure the integrated intensity of the band containing looped construct, and this quantity was normalized by the integrated intensity of a reference band in the same lane from a DNA ladder, which was added to the construct prior to starting experiments. Individual time constants for each experimental condition were determined by fitting a single exponential decay to the data using an error weighted least squares fitting.

[4] = system: disulfide bond (var 4-S-S-var 8); test: DNA nanoswitch disulfide bond reduction; conditions: 10 μM TCEP, room temperature (25° C.)
Method: This construct was created in 3 steps. 1) Var 4 and a truncated version of var 8 with a 3′ and a 5′ thiol respectively, were reduced in 50 mM TCEP (BondBreaker Thermo Scientific). 2) These two oligonucleotides were linked by a disulfide. 3) The disulfide-bridged oligonucleotides were hybridized onto the DNA nanoswitch. • 1) To reduce the thiols on the oligonucleotides they were incubated in 50 mM TCEP for 1 hour at RT. • 2) Equal volumes of the two oligonucleotide-TCEP mixtures were then combined. The TCEP was removed using a QIAGEN nucleotide-removal kit. The oligonucleotides were then allowed to form disulfides in the absence of reducing agent in PBS for 1 hour before running the products on a precast 4-20% gradient polyacrylamide TBE gel. As the oligonucleotides were different sizes (60 and 30 nt) the appropriate hetero dimer could be easily identified and purified using electroelution as previously described^5. • 3) The var 4-S-S-var 8 was used instead of the normal var 4 and var 8. This was annealed onto the linear M13 backbone at a 1:1 ratio and was added along with the other oligonucleotides at the beginning of the annealing. This yielded loops with a disulfide bridging variable regions 4 and 8.
With these loops in hand we could observe loop opening as a result of TCEP reduction of the disulfide bond. […]

[5] = calculated from on-rate and off-rate

T1 sequence (P22629 25-183): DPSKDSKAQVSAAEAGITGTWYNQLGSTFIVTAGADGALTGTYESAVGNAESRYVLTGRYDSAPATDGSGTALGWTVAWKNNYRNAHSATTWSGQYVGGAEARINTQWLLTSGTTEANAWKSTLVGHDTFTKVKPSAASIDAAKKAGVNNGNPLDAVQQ

SMILES: C[C@@H]1NC(=O)N[C@@H]1CCCCCC(=O)O [desthiobiotin]
- off-rate (streptavidin [1]; 4° C.): 35.3 ± 7.5 min
- off-rate (streptavidin [1]; room temperature): 8.6 ± 1.2 min

SMILES: O=C(O)CCCC[C@@H]1SC[C@@H]2NC(=O)N[C@@H]21 [biotin]
- affinity of Neutravidin for biotin, weaker than avidin's (Neutravidin): 20 times
- on-rate (streptavidin [2]; 150 mM salt, room temperature): 4.0±0.7×10^6 M^−1s^−1
- variation of dissociation kinetics over temperature range (streptavidin [2]; 4-50° C.): ~1,000 fold
- variation of dissociation kinetics over salt range (streptavidin [2]; 25-500 mM): about 2 fold
- equilibrium enthalpy change, ΔH (streptavidin [2]; [5]): 26.01 ± 0.05 kcal/mol
- equilibrium free energy change, ΔG^0 (streptavidin [2]; [5]): -17.1 ± 0.1 kcal/mol
- dissociation time (streptavidin [2]; physiological salt conditions, 25° C.): 9.7 ± 0.4 days
- change of off-rate with salt (streptavidin [3]; 5 mM to 500 mM at a given temperature): less than 2 fold
- dissociation time (streptavidin [3]; 25° C.): 148 ± 10 h
- dissociation time (streptavidin [3]; 37° C.): 11.2 ± 3 h
- variation of off-rate with temperature (streptavidin [3]; 4° C. to 50° C. at a given salt concentration): over 100 fold
- off-rates as fast as (streptavidin [3]; high temperature): 40 min

SMILES: O=C(O)CCP(CCC(=O)O)CCC(=O)O [TCEP]
- time constant of disulfide bond reduction [4]: 2.6±0.4 weeks
